Laboratory results from patent publication US7009045B2 (priority 2000, dated 2006).

Experiments:
[1] = test system: Candida famata regulatory mutants able to overproduce riboflavin; test: Sensitivity to Co^+2 ions, solid Burkholder medium (Table 16); assay type: cell-based; set-up: key: +++: strong growth; ++: weak growth; —: absence of growth
Experimental: (§1) The sensitivity of the regulatory mutants of the yeast C. famata which overproduce riboflavin in iron rich medium probably due to defects in genes regulating repression (repression mutants), to different ions of heavy metals was studied. For this, the analyzed strains were streaked on the YPD plates and then were replica-plated on Burkholder synthetic medium containing leucine (40 μg/ml). The C.famata mutants L20105-40-1-11, L20105-40-1-17, L20105-3-2-1, L20105-3-2-8 and L20105-3-2-12 (all contained leu2 marker) accumulated 80–100 μg riboflavin/ml. The mutants #75, 4-48, 2-5 produced much higher amounts of riboflavin (200–250 μg/ml) but were prototrophs for leucine synthesis. Strain #75 was characterized by retarded growth comparing with other mutants. The strains VKM Y-9 (wild type) and L20105 (leu2) were used as the control strains.

[2] = test system: Candida famata regulatory mutants able to overproduce riboflavin; test: Sensitivity to copper ions, solid Burkholder medium (Table 12); assay type: cell-based; set-up: key: +++: strong growth; ++: weak growth; +: very weak growth; —: absence of growth
Experimental: as §1
Mutants overproducing lower amounts of riboflavin appeared to be more sensitive to CuSO4 (0.15 mM) than that of the strains producing higher amounts of riboflavin (inhibitory concentration 0.5 mM) (Table 12).

[Cl-].[Cl-].[Co+2] [CoCl2]
growth ([1]; #2-5, Co^+2 1.25 μg/ml): +++ | growth ([1]; #2-5, Co^+2 2.5 μg/ml): ++ | growth ([1]; #2-5, Co^+2 5.0 μg/ml): — | growth ([1]; #2-5, Co^+2 6.25 μg/ml): — | growth ([1]; #2-5, Co^+2 7.5 μg/ml): — | growth ([1]; #2-5, Co^+2 8.75 μg/ml): — | growth ([1]; #2-5, Co^+2 10 μg/ml): — | growth ([1]; #2-5, Co^+2 11.25 μg/ml): — | growth ([1]; #2-5, Co^+2 12.5 μg/ml): — | growth ([1]; #4-48, Co^+2 1.25 μg/ml): +++ | growth ([1]; #4-48, Co^+2 2.5 μg/ml): ++ | growth ([1]; #4-48, Co^+2 3.75 μg/ml): — | growth ([1]; #4-48, Co^+2 5.0 μg/ml): — | growth ([1]; #4-48, Co^+2 6.25 μg/ml): — | growth ([1]; #4-48, Co^+2 7.5 μg/ml): — | growth ([1]; #4-48, Co^+2 8.75 μg/ml): — | growth ([1]; #4-48, Co^+2 10 μg/ml): — | growth ([1]; #4-48, Co^+2 11.25 μg/ml): — | growth ([1]; #4-48, Co^+2 12.5 μg/ml): — | growth ([1]; #75, Co^+2 1.25 μg/ml): ++ | growth ([1]; #75, Co^+2 3.75 μg/ml): — | growth ([1]; #75, Co^+2 5.0 μg/ml): — | growth ([1]; #75, Co^+2 6.25 μg/ml): — | growth ([1]; #75, Co^+2 7.5 μg/ml): — | growth ([1]; #75, Co^+2 8.75 μg/ml): — | growth ([1]; #75, Co^+2 10 μg/ml): — | growth ([1]; #75, Co^+2 11.25 μg/ml): — | growth ([1]; #75, Co^+2 12.5 μg/ml): — | growth ([1]; L20105 (leu2), Co^+2 1.25 μg/ml): +++ | growth ([1]; L20105 (leu2), Co^+2 2.5 μg/ml): +++ | growth ([1]; L20105 (leu2), Co^+2 3.75 μg/ml): +++ | growth ([1]; L20105 (leu2), Co^+2 5.0 μg/ml): +++ | growth ([1]; L20105 (leu2), Co^+2 6.25 μg/ml): +++ | growth ([1]; L20105 (leu2), Co^+2 7.5 μg/ml): +++ | growth ([1]; L20105 (leu2), Co^+2 8.75 μg/ml): +++ | growth ([1]; L20105 (leu2), Co^+2 10 μg/ml): +++ | growth ([1]; L20105 (leu2), Co^+2 11.25 μg/ml): ++ | growth ([1]; L20105 (leu2), Co^+2 12.5 μg/ml): ++ | growth ([1]; L20105-3-2-1, Co^+2 1.25 μg/ml): +++ | growth ([1]; L20105-3-2-1, Co^+2 2.5 μg/ml): ++ | growth ([1]; L20105-3-2-1, Co^+2 5.0 μg/ml): — | growth ([1]; L20105-3-2-1, Co^+2 6.25 μg/ml): — | growth ([1]; L20105-3-2-1, Co^+2 7.5 μg/ml): — | growth ([1]; L20105-3-2-1, Co^+2 8.75 μg/ml): — | growth ([1]; L20105-3-2-1, Co^+2 10 μg/ml): — | growth ([1]; L20105-3-2-1, Co^+2 11.25 μg/ml): — | growth ([1]; L20105-3-2-1, Co^+2 12.5 μg/ml): — | growth ([1]; L20105-3-2-8, Co^+2 1.25 μg/ml): +++ | growth ([1]; L20105-3-2-8, Co^+2 2.5 μg/ml): ++ | growth ([1]; L20105-3-2-8, Co^+2 6.25 μg/ml): — | growth ([1]; L20105-3-2-8, Co^+2 7.5 μg/ml): — | growth ([1]; L20105-3-2-8, Co^+2 8.75 μg/ml): — | growth ([1]; L20105-3-2-8, Co^+2 10 μg/ml): — | growth ([1]; L20105-3-2-8, Co^+2 11.25 μg/ml): — | growth ([1]; L20105-3-2-8, Co^+2 12.5 μg/ml): — | growth ([1]; L20105-3-2-9, Co^+2 1.25 μg/ml): +++ | growth ([1]; L20105-3-2-9, Co^+2 2.5 μg/ml): ++ | growth ([1]; L20105-3-2-9, Co^+2 5.0 μg/ml): — | growth ([1]; L20105-3-2-9, Co^+2 6.25 μg/ml): — | growth ([1]; L20105-3-2-9, Co^+2 7.5 μg/ml): — | growth ([1]; L20105-3-2-9, Co^+2 8.75 μg/ml): — | growth ([1]; L20105-3-2-9, Co^+2 10 μg/ml): — | growth ([1]; L20105-3-2-9, Co^+2 11.25 μg/ml): — | growth ([1]; L20105-3-2-9, Co^+2 12.5 μg/ml): — | growth ([1]; L20105-3-2-12, Co^+2 1.25 μg/ml): +++ | growth ([1]; L20105-3-2-12, Co^+2 2.5 μg/ml): ++ | growth ([1]; L20105-3-2-12, Co^+2 6.25 μg/ml): — | growth ([1]; L20105-3-2-12, Co^+2 7.5 μg/ml): — | growth ([1]; L20105-3-2-12, Co^+2 8.75 μg/ml): — | growth ([1]; L20105-3-2-12, Co^+2 10 μg/ml): — | growth ([1]; L20105-3-2-12, Co^+2 11.25 μg/ml): — | growth ([1]; L20105-3-2-12, Co^+2 12.5 μg/ml): — | growth ([1]; L20105-40-1-11, Co^+2 1.25 μg/ml): +++ | growth ([1]; L20105-40-1-11, Co^+2 2.5 μg/ml): ++ | growth ([1]; L20105-40-1-11, Co^+2 5.0 μg/ml): — | growth ([1]; L20105-40-1-11, Co^+2 6.25 μg/ml): — | growth ([1]; L20105-40-1-11, Co^+2 7.5 μg/ml): — | growth ([1]; L20105-40-1-11, Co^+2 8.75 μg/ml): — | growth ([1]; L20105-40-1-11, Co^+2 10 μg/ml): — | growth ([1]; L20105-40-1-11, Co^+2 11.25 μg/ml): — | growth ([1]; L20105-40-1-11, Co^+2 12.5 μg/ml): — | growth ([1]; VKM Y-9, Co^+2 1.25 μg/ml): +++ | growth ([1]; VKM Y-9, Co^+2 2.5 μg/ml): +++ | growth ([1]; VKM Y-9, Co^+2 3.75 μg/ml): +++ | growth ([1]; VKM Y-9, Co^+2 5.0 μg/ml): +++ | growth ([1]; VKM Y-9, Co^+2 6.25 μg/ml): +++ | growth ([1]; VKM Y-9, Co^+2 7.5 μg/ml): +++ | growth ([1]; VKM Y-9, Co^+2 8.75 μg/ml): +++ | growth ([1]; VKM Y-9, Co^+2 10 μg/ml): +++ | growth ([1]; VKM Y-9, Co^+2 11.25 μg/ml): +++ | growth ([1]; VKM Y-9, Co^+2 12.5 μg/ml): +++

O=S(=O)([O-])[O-].[Cu+2] [CuSO4]
growth ([2]; #2-5, Cu^+2 0.45 mM): + | growth ([2]; #4-48, Cu^+2 0.45 mM): + | growth ([2]; #75, Cu^+2 0.45 mM): + | growth ([2]; L20105 (leu2), Cu^+2 0.6 mM): + | growth ([2]; L20105-3-2-4, Cu^+2 0.1 mM): + | growth ([2]; L20105-3-2-8, Cu^+2 0.1 mM): + | growth ([2]; L20105-3-2-12, Cu^+2 0.1 mM): +
